Measured values published in ChEMBL document CHEMBL3259648, “Synthesis and in vitro evaluation of anti-inflammatory activity of ester and amine derivatives of indoline in RAW 264.7 and peritoneal macrophages” (Bioorg Med Chem Lett, 2014).
Activity calls are given as the source filed them. The calls are words filed in the database; no cut-off is given here.

Tests used:
[1] = tested on: Peritoneal macrophage cell; experiment: Antiinflammatory activity in C57bl/6 mouse peritoneal macrophages assessed as reduction in LPS-induced TNF-alpha production at >=1 uM treated for 30 mins prior to LPS challenge measured after 6 hrs by ELISA; type: functional, cell-based
[2] = tested on: Peritoneal macrophage cell; experiment: Antiinflammatory activity in C57bl/6 mouse peritoneal macrophages assessed as reduction in LPS-induced IL-6 production at >=10 nM treated for 30 mins prior to LPS challenge measured after 24 hrs by ELISA; type: functional, cell-based
RAW264.7 [3] = experiment: Cytotoxicity against mouse RAW264.7 cells assessed as cell viability at 10 pM to 10 uM by MTT assay; type: cell-based
[4] = Cytotoxicity against C57bl/6 mouse peritoneal macrophages assessed as cell viability at 10 pM to 10 uM by MTT assay; type: cell-based; settings: peritoneal macrophage cell
Cholinesterase = Cholinesterase (Equus caballus, UniProt P81908); experiment: Inhibition of BuChE in equine serum using butylthiocholine iodide as substrate by Ellman's method
Sequence of Cholinesterase (P81908 whole entry): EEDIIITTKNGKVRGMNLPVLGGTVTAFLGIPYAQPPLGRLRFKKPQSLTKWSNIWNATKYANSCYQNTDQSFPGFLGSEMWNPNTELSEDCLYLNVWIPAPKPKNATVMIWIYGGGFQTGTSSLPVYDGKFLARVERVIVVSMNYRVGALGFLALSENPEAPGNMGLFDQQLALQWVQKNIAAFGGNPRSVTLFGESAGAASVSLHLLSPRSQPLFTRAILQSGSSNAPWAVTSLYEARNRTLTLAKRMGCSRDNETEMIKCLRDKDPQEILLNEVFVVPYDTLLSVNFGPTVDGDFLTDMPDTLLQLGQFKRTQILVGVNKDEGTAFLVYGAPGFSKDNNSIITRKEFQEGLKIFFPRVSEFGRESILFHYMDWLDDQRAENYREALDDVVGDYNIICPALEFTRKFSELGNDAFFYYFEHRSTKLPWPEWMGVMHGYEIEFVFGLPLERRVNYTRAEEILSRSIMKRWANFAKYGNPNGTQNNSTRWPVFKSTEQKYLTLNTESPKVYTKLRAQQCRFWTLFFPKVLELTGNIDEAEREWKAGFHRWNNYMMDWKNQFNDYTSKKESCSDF

RAW264.7 [5] = experiment: Antiinflammatory activity in mouse RAW264.7 cells assessed as reduction in LPS-induced NaNO2 release at >=1 nM treated for 30 mins prior to LPS challenge measured after 24 hrs by griess reaction assay; type: functional, cell-based
RAW264.7 [6] = experiment: Antiinflammatory activity in mouse RAW264.7 cells assessed as reduction in LPS-induced NaNO2 release at 1 nM treated for 30 mins prior to LPS challenge measured after 24 hrs by griess reaction assay relative to budesonide; type: functional
RAW264.7 [7] = experiment: Antiinflammatory activity in mouse RAW264.7 cells assessed as reduction in LPS-induced NaNO2 release at 1 nM treated for 30 mins prior to LPS challenge measured after 24 hrs by griess reaction assay relative to melatonin; type: functional
[8] = tested on: Peritoneal macrophage cell; experiment: Antiinflammatory activity in C57bl/6 mouse peritoneal macrophages assessed as reduction in LPS-induced TNF-alpha production at >=10 pM treated for 30 mins prior to LPS challenge measured after 6 hrs by ELISA; type: functional, cell-based
Acetylcholinesterase = target: T1, Acetylcholinesterase (Bos taurus, UniProt P23795); experiment: Inhibition of AChE in bovine erythrocytes using acetylthiocholine iodide as substrate by Ellman's method
T1 sequence (P23795 whole entry): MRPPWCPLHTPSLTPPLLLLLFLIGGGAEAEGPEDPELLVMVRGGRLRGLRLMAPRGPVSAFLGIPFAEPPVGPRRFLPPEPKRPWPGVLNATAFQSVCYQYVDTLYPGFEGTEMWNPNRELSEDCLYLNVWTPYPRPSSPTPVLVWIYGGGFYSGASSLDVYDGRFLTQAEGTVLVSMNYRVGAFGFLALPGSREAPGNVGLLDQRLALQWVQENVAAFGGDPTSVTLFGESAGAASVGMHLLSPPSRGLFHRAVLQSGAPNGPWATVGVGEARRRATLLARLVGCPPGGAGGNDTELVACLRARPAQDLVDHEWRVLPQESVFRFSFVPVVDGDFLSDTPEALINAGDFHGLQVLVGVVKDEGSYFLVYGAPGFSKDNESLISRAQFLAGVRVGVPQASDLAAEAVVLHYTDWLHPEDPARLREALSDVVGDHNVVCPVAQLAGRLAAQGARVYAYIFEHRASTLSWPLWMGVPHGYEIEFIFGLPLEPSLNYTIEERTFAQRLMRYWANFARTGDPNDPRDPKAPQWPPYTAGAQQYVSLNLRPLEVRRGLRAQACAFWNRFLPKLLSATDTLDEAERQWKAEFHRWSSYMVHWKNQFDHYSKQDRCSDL

RAW264.7 [9] = experiment: Antiinflammatory activity in mouse RAW264.7 cells assessed as reduction in LPS-induced NaNO2 release at >=10 pM treated for 30 mins prior to LPS challenge measured after 24 hrs by griess reaction assay; type: functional, cell-based
RAW264.7 [10] = experiment: Antiinflammatory activity in mouse RAW264.7 cells assessed as reduction in LPS-induced NaNO2 release at 10 pM treated for 30 mins prior to LPS challenge measured after 24 hrs by griess reaction assay relative to budesonide; type: functional
RAW264.7 [11] = experiment: Antiinflammatory activity in mouse RAW264.7 cells assessed as reduction in LPS-induced NaNO2 release at 10 pM treated for 30 mins prior to LPS challenge measured after 24 hrs by griess reaction assay relative to melatonin; type: functional
[12] = tested on: Peritoneal macrophage cell; experiment: Antiinflammatory activity in C57bl/6 mouse peritoneal macrophages assessed as reduction in LPS-induced TNF-alpha production at >=1 pM treated for 30 mins prior to LPS challenge measured after 6 hrs by ELISA; type: functional, cell-based
[13] = tested on: Peritoneal macrophage cell; experiment: Antiinflammatory activity in C57bl/6 mouse peritoneal macrophages assessed as reduction in LPS-induced IL-6 production at >=10 pM treated for 30 mins prior to LPS challenge measured after 24 hrs by ELISA; type: functional, cell-based
[14] = target: MAP kinase p38 (Mus musculus) (UniProt P47811+O08911+Q9WUI1+Q9Z1B7); experiment: Inhibition of p38 phosphorylation in LPS-activated C57bl/6 mouse peritoneal macrophages at 0.1 nM treated for 30 mins prior to LPS challenge by immunoblot analysis
Mus musculus [15] = species: Mus musculus; experiment: Inhibition of ERK phosphorylation in LPS-activated C57bl/6 mouse peritoneal macrophages at 0.1 nM treated for 30 mins prior to LPS challenge by immunoblot analysis
Mus musculus [16] = species: Mus musculus; experiment: Inhibition of JNK phosphorylation in LPS-activated C57bl/6 mouse peritoneal macrophages at 0.1 nM treated for 30 mins prior to LPS challenge by immunoblot analysis
[17] = target: T2, Inhibitor of nuclear factor kappa-B kinase subunit alpha (Mus musculus) (UniProt Q60680); experiment: Inhibition of IkappaB alpha degradation in LPS-activated C57bl/6 mouse peritoneal macrophages at 0.1 nM treated for 30 mins prior to LPS challenge by immunoblot analysis
T2 sequence (whole entry): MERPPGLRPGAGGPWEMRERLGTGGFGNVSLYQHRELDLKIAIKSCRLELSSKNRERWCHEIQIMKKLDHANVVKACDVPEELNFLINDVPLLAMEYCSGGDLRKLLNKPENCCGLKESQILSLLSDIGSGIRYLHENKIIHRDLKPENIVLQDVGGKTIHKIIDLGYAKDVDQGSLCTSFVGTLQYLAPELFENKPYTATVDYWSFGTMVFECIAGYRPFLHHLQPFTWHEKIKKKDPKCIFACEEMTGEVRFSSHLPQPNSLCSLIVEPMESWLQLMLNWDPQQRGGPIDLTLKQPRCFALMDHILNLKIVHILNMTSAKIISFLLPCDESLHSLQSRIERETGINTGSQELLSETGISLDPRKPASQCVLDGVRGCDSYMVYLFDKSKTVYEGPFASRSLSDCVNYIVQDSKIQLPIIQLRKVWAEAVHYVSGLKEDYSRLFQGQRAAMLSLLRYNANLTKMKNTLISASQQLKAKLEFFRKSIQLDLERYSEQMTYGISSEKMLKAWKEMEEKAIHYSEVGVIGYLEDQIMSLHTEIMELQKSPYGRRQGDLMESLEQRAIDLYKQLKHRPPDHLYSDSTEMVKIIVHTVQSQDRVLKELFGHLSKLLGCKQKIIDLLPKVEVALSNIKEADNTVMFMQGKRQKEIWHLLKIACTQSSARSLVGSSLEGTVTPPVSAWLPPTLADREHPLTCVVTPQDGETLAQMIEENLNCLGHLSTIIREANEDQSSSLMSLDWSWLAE

[18] = tested on: Peritoneal macrophage cell; experiment: Antiinflammatory activity in C57bl/6 mouse peritoneal macrophages assessed as reduction in LPS-induced TNF-alpha production at >=10 nM treated for 30 mins prior to LPS challenge measured after 6 hrs by ELISA; type: functional, cell-based
[19] = tested on: Peritoneal macrophage cell; experiment: Antiinflammatory activity in C57bl/6 mouse peritoneal macrophages assessed as reduction in LPS-induced IL-6 production at >=1 nM treated for 30 mins prior to LPS challenge measured after 24 hrs by ELISA; type: functional, cell-based

Compound	inhibition [2]	Activity (RAW264.7 [3])	Activity [4]	IC50 (Cholinesterase)	inhibition (RAW264.7 [5])	fold change (FC) (RAW264.7 [6])	fold change (FC) (RAW264.7 [7])	inhibition [8]	IC50 (Acetylcholinesterase)	inhibition (RAW264.7 [9])	fold change (FC) (RAW264.7 [10])	fold change (FC) (RAW264.7 [11])	inhibition [12]	inhibition [13]	further results
CCN(C)C(=O)Oc1ccc2c(c1)N(CCC(=O)OC)CC2.Cl	Active	Non-toxic	Non-toxic	6780 nM											inhibition [1]: Active
CCN(C)C(=O)Oc1cccc2c1CCN2CCCN(C)C.Cl	Active	Non-toxic	Non-toxic	900 nM	Active	10	100	Active	3700 nM						
CCN(C)C(=O)Oc1cccc2c1C(CCN)CN2.Cl.Cl (stereo not given)		Non-toxic	Non-toxic	200 nM						Active	10	100	Active	Active	
CCN(C)C(=O)Oc1cccc2c1C(CCC(=O)OC)CN2.Cl (stereo not given)		Non-toxic	Non-toxic	300 nM						Active	10	100	Active	Active	inhibition [14]: Active; inhibition (Mus musculus [15]): inactive; inhibition (Mus musculus [16]): inactive; inhibition [17]: Active
CCN(C)C(=O)Oc1ccc2c(c1)NCC2CCN(C)C.Cl (stereo not given)	Active	Non-toxic	Non-toxic	2200 nM	Active	10	100	Active	21300 nM						
CCN(C)C(=O)Oc1cccc2c1C(CCCN)CN2.Cl (stereo not given)		Non-toxic	Non-toxic	1200 nM	Active	10	100		1800 nM				Active	Active	
CCN(C)C(=O)Oc1cccc2c1CCN2CCC(=O)OC.Cl	Active	Non-toxic	Non-toxic	700 nM						Active	10	100			inhibition [18]: Active
CCN(C)C(=O)Oc1ccc2c(c1)NCC2CCCN.Cl (stereo not given)		Non-toxic	Non-toxic	4700 nM	Active	10	100		36000 nM				Active	Active	
CCN(C)C(=O)Oc1ccc2c(c1)NCC2CCC(=O)OC.Cl (stereo not given)		Non-toxic	Non-toxic	3900 nM						Active	10	100	Active		inhibition [19]: Active
CCN(C)C(=O)Oc1cccc2c1C(CCN(C)C)CN2.Cl (stereo not given)	Active	Non-toxic	Non-toxic	310 nM				Active	1300 nM	Active	10	100			
CCN(C)C(=O)Oc1ccc2c(c1)N(CCCN(C)C)CC2.Cl	Active	Non-toxic	Non-toxic	4270 nM	Active	10	100	Active	48000 nM						
